The target in data set [1] is T1, soluble guanylate cyclase (sGC) (Bos taurus, UniProt P16068).
T1 construct: The sGC employed had been isolated from bovine lung; from tissue; host or cells: bovine lung
T1 sequence (P16068 1-619): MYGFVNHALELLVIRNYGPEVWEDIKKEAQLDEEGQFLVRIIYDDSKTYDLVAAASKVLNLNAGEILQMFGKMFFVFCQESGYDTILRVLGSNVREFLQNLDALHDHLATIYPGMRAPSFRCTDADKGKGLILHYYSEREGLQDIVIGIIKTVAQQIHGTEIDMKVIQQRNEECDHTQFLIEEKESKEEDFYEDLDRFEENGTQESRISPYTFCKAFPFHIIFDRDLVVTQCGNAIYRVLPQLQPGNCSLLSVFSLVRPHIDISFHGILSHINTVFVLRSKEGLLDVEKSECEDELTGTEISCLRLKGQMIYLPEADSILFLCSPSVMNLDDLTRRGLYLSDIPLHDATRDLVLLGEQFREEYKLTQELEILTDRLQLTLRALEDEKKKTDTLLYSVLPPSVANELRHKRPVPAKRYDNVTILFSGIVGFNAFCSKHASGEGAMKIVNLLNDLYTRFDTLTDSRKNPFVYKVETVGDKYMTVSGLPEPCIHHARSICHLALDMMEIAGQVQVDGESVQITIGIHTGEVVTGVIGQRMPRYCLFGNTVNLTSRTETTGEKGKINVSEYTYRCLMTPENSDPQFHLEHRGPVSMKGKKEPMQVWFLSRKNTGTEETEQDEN
T1 sequence (P19687 1-691 partner): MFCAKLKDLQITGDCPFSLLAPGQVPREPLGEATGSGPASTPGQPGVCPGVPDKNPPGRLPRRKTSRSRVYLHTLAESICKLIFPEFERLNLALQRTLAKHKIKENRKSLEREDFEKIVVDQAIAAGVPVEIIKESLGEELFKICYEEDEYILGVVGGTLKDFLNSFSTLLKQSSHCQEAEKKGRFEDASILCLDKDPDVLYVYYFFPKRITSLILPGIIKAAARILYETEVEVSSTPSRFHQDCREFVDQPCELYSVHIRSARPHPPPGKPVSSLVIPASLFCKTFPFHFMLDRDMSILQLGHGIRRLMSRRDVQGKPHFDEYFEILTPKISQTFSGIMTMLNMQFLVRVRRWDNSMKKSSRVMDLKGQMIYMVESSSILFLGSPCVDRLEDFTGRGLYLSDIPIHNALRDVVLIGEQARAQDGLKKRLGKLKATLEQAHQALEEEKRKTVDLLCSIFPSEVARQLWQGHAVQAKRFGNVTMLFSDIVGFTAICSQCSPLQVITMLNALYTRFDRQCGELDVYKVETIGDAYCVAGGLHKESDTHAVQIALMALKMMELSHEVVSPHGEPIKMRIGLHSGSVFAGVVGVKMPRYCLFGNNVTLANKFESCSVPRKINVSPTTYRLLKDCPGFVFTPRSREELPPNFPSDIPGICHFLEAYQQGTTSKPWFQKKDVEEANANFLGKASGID
In words: Activation of soluble guanylate cyclase (cGMP enzyme immunoassay). The conditions noted are these: sGC isolated from bovine lung, stimulation of basal enzyme activity vs solvent control. It is filed as biochemical. On the procedure:
The activation of soluble guanylate cyclase (sGC), which catalyzes the conversion of guanosine triphosphate (GTP) to cyclic guanosine monophosphate (cGMP) and pyrophosphate, by the compounds according to the invention was quantified with the aid of an enzyme immunoassay (EIA) from Amersham. For this, the test substances were first incubated with sGC in microtiter plates and then the quantity of the resulting cGMP was determined.
The sGC employed had been isolated from bovine lung (see Methods in Enzymology, Volume 195, p. 377). The test solutions (100 μl per well) contained 50 mM triethanolamine (TEA) buffer (pH 7.5), 3 mM MgCl2, 3 mM reduced glutathione (GSH), 0.1 mM GTP, 1 mM 3-isobutyl-1-methylxanthine (IBMX), suitably diluted enzyme solution and the test substance or, in the control experiments, solvent. The test substances were dissolved in dimethyl sulfoxide (DMSO) and the solution was diluted with DMSO/water such that the final concentration c of test substance in the test batch had the value indicated below. The DMSO concentration in the test batch was 5% (v/v). The reaction was started by addition of the sGC. The reaction mix was incubated at 37° C. for 15 to 20 minutes and then stopped by ice-cooling and addition of the stop reagent (50 mM EDTA, pH 8.0). An aliquot of 50 μl was taken and employed for the determination of the cGMP content using the acetylation protocol of the Amersham cGMP EIA kit. The absorption of the samples was measured at 450 nm (reference wavelength 620 nm) in a microtiter plate reading apparatus. The cGMP concentration was determined by means of a calibration curve, which was obtained under the same experimental conditions. The activation of the sGC by a test substance is indicated as n-fold stimulation of the basal enzyme activity which was found in the control experiments (with solvent instead of test substance) (calculated according to the formula n-fold stimulation=[cGMP]test substance/[cGMP]control).

Molecule `O=C(Nc1ccc(Oc2ccccc2)cc1)c1cc(Cl)ccc1NS(=O)(=O)c1ccc(Cl)cc1` [Example 5, 5-Chloro-2-(4-chlorophenylsulfonylamino)-N-(4-phenoxyphenyl)benzamide] displayed a melting point of 205 °C. Moreover, the n-fold stimulation in data set [1] (concentration c 10 μM) is reported as 9.3 n-fold. Molecule `O=C(Nc1cccc(C(F)(F)F)c1)c1cc(Cl)ccc1NS(=O)(=O)c1ccc(Cl)cc1` [Example 4, 5-Chloro-2-(4-chlorophenylsulfonylamino)-N-(3-trifluoromethylphenyl)benzamide] displayed a melting point of 216 °C. The molecule further showed a n-fold stimulation in data set [1] (concentration c 25 μM) of 5.5 n-fold.

With `O=C(Nc1cccc(Cl)c1)c1cc(Cl)ccc1NS(=O)(=O)c1ccc(Cl)cc1` [Example 10, 5-Chloro-2-(4-chlorophenylsulfonylamino)-N-(3-chlorophenyl)benzamide], the melting point is 228 °C. Moreover, the n-fold stimulation in data set [1] (concentration c 100 μM) amounted to 1.7 n-fold. `O=C(Nc1cc(C(F)(F)F)cc(C(F)(F)F)c1)c1cc(Cl)ccc1NS(=O)(=O)c1ccc(Cl)cc1` [Example 28, 5-Chloro-2-(4-chlorophenylsulfonylamino)-N-(3,5-bis-trifluoromethylphenyl)benzamide] displayed a melting point of 182.5 °C.

Molecule `N#CC(c1ccccc1)c1ccc(NC(=O)c2cc(Cl)ccc2NS(=O)(=O)c2ccc(Cl)cc2)cc1` (stereo not drawn) [Example 97, 5-Chloro-2-(4-chlorophenylsulfonylamino)-N-(4-(cyanophenylmethyl)phenyl)benzamide] returned a n-fold stimulation in data set [1] (concentration c 12.5 μM) of 4.9 n-fold. `COc1ccc(S(=O)(=O)Nc2ccc(Cl)cc2C(=O)Nc2ccc(F)cc2)cc1Cl` [Example 17] gave a n-fold stimulation in data set [1] (concentration c 100 μM) of 2 n-fold. On to `COc1cccc(NC(=O)c2cc(Cl)ccc2NS(=O)(=O)c2ccc(Cl)cc2)c1` [Example 31, 5-Chloro-2-(4-chlorophenylsulfonylamino)-N-(3-methoxyphenyl)benzamide], for which the melting point is 163.5 °C. “5-Chloro-2-(4-chlorophenylsulfonylamino)-N-(quinolinsyl)benzamide [Example 111]” yielded a n-fold stimulation in data set [1] (concentration c 50 μM) of 6.1 n-fold. On the same count and under the same terms, under `O=C(O)Cc1cccc(NC(=O)c2cc(Cl)ccc2NS(=O)(=O)c2ccc(Cl)cc2)c1` [Example 108, (3-(5-Chloro-2-(4-chlorophenylsulfonylamino)benzoylamino)phenyl)acetic acid] stands 2.5 n-fold; under `CCN(CC)Cc1cc(NC(=O)c2cc(Cl)ccc2NS(=O)(=O)c2ccc(Cl)cc2)ccc1O` [Example 93, 5-Chloro-2-(4-chlorophenylsulfonylamino)-N-(3-diethylaminomethyl-4-hydroxyphenyl)benzamide], 1.5 n-fold. With `COc1cc(NC(=O)c2cc(Cl)ccc2NS(=O)(=O)c2ccc(Cl)cc2)cc(OC)c1` [Example 32, 5-Chloro-2-(4-chlorophenylsulfonylamino)-N-(3,5-dimethoxyphenyl)benzamide], the melting point was determined as 74.5 °C. With `O=C(Nc1ccc(N2CCOCC2)cc1)c1cc(Cl)ccc1NS(=O)(=O)c1ccc(Cl)cc1` [Example 21, 5-Chloro-2-(4-chlorophenylsulfonylamino)-N-(4-(morpholin-4-yl)phenyl)benzamide], the melting point is 228.5 °C. Further, in data set [1] (concentration c 50 μM), the n-fold stimulation is 8 n-fold. As to `CC(=O)c1ccc(NC(=O)c2cc(Cl)ccc2NS(=O)(=O)c2ccc(Cl)cc2)cc1` [Example 24, 5-Chloro-2-(4-chlorophenylsulfonylamino)-N-(4-acetylphenyl)benzamide], the melting point amounted to 226 °C. Also, in data set [1] (concentration c 50 μM), the n-fold stimulation came to 2.4 n-fold.

`CCOC(=O)c1cc(NC(=O)c2cc(Cl)ccc2NS(=O)(=O)c2ccc(Cl)c(Cl)c2)ccc1Cl` [Example 18, Ethyl 2-chloro-5-(5-chloro-2-(3,4-dichlorophenylsulfonylamino)benzoylamino)benzoate] displayed a melting point of 202 °C. The molecule further displayed a n-fold stimulation in data set [1] (concentration c 100 μM) of 3.2 n-fold. `O=C(Nc1ccccc1C(F)(F)F)c1cc(Cl)ccc1NS(=O)(=O)c1ccc(Cl)cc1` [Example 30, 5-Chloro-2-(4-chlorophenylsulfonylamino)-N-(2-trifluoromethylphenyl)benzamide] came in with a melting point of 182 °C.

`COc1ccc(C(F)(F)F)cc1NC(=O)c1cc(Cl)ccc1NS(=O)(=O)c1ccc(Cl)cc1` [Example 29, 5-Chloro-2-(4-chlorophenylsulfonylamino)-N-(2-methoxy-5-trifluoromethylphenyl)benzamide] showed a melting point of 164.5 °C. `O=C(O)CNC(=O)c1ccc(NC(=O)c2cc(Cl)ccc2NS(=O)(=O)c2ccc(Cl)cc2)cc1` [Example 102, (4-(5-Chloro-2-(4-chlorophenylsulfonylamino)benzoylamino)benzoylamino)acetic acid] gave a n-fold stimulation in data set [1] (concentration c 50 μM) of 1.7 n-fold. For `O=C(Nc1ccc(Cl)c(Cl)c1)c1cc(Cl)ccc1NS(=O)(=O)c1ccc(Cl)cc1` [Example 8, 5-Chloro-2-(4-chlorophenylsulfonylamino)-N-(3,4-dichlorophenyl)benzamide], the n-fold stimulation in data set [1] (concentration c 10 μM) came out at 5.3 n-fold. In the case of `O=C(Nc1ccc(Nc2ccccc2)cc1)c1cc(Cl)ccc1NS(=O)(=O)c1ccc(Cl)cc1` [Example 22, 5-Chloro-2-(4-chlorophenylsulfonylamino)-N-(4-(phenylamino)phenyl)benzamide], the melting point turned out to be 192.5 °C. The molecule `O=C(Nc1ccc(N2CCCC2=O)cc1)c1cc(Cl)ccc1NS(=O)(=O)c1ccccc1` [Example 25] showed a n-fold stimulation in data set [1] (concentration c 50 μM) of 2.4 n-fold. With `O=C(Nc1ccc(Oc2ccc(Cl)c3ccccc23)c(Cl)c1)c1cc(Cl)ccc1NS(=O)(=O)c1ccc(Cl)cc1` [Example 19, 5-Chloro-2-(4-chlorophenylsulfonylamino)-N-(3-chloro-4-(4-chloronaphthalene-1-yloxy)phenyl)benzamide], the n-fold stimulation in data set [1] (concentration c 100 μM) is 26.3 n-fold. For the molecule `O=C(Nc1cc(-c2cccs2)n[nH]1)c1cc(Cl)ccc1NS(=O)(=O)c1ccc(Cl)cc1` [Example 27, 5-Chloro-2-(4-chlorophenylsulfonylamino)-N-(3-(2-thienyl)pyrazol-5-yl)benzamide], the melting point was determined as 117 °C. As to `O=C(Nc1ccc(C(=O)N2CCOCC2)cc1)c1cc(Cl)ccc1NS(=O)(=O)c1ccc(Cl)cc1` [Example 33, 5-Chloro-2-(4-chlorophenylsulfonylamino)-N-(4-(morpholine-4-carbonyl)phenyl)benzamide], the n-fold stimulation in data set [1] (concentration c 50 μM) stood at 3.8 n-fold. Consider `Cc1cncc(NC(=O)c2cc(Cl)ccc2NS(=O)(=O)c2ccc(Cl)cc2)n1` [Example 26, 5-Chloro-2-(4-chlorophenylsulfonylamino)-N-(5-methylpyrazin-3-yl)benzamide], for which the melting point came to 248 °C.

The values above are taken from US7351703B2, “Sulfonylamino carboxylic acid N-arylamides as guanylate cyclase activators” (Sanofi-Aventis Deutschland GmbH, priority 1999, dated 2008).
